Values after ≈ are worked out from the molar mass of the structure shown.
Assays:
[1] = test system: Bel7402 (human hepatocellulor); assay: In vitro tumour cell growth inhibition (MTT), Bel-7402; assay type: cell-based; details: Table 1 experiment, 96 h
Procedure: (§1) Temozolomide (white powder), temozolomide acid (white powder) and temozolomide-8-carboxylate hexyl (white scale crystal) were made in house. For the estimation of in vitro tumour cell growth inhibition, MV3 (human melanoma), M14 (human melanoma), B16 and B16-BL6 (mouse melanoma), SHG-44, TJ899 and TJ905 (human glioma), MCF-7 (human breast), HCT-8 (human colon), A549 (human non small lung), Bel7402 (human hepatocellulor), and BGC-823 (human stomach) were used. All tumour cells were cultured in RPMI-1640 medium supplemented with 10% fetal bovine serum (FBS) at 37° C. in a humidified 5% CO2 incubator.
(§2) After being harvested from culture flasks, a cell suspension of 1×10^4/ml was made by using 1640 RPMI medium supplemented with 10% fetal bovine serum. 100 μl (contains 1000 tumour cells) of the cell suspension was seeded per well of 96-well flat-bottom Costar culture plates at 37° C. in a humidified 5% CO2 incubator for 24 hrs before introducing drugs. Each tested compounds was made for five different concentrations and 100 μl of the each concentration was introduced into parallel three wells; control wells were added with 100 μl of plain medium alone; fluorouracil (a chemotherapeutic antitumour drug) was used as the positive control. Cells were then incubated for 96 h. Proliferative response and cell death were determined using MTT (3-(4,5-dimethylthiazolyl)-2,5-diphenyl-tetrazolium bromide) assay.
(§3) MTT assay: Following incubation of cells with the tested compounds for 96 h, 100 μl of 0.4 mg/ml MTT in RPMI 1640 was added to each well and the plate was incubated at 37° C. for 4 h. The plate was then centrifuged and followed by removal of medium. 150 μl of DMSO was then added to dissolve formazan crystal. DMSO-added plates were placed on a plate shaker for 5 min and absorbance was measured spectrophotometrically at 540 nm (with reference wavelength at 450 nm) using a Benchmark microtiter plate reader (Bio-Rad 550, Bio-Rad Laboratories, CA, U.S.A.).
(§4) The IC50 was calculated from the curve of the tested compound concentrations against the inhibition rate of the tumour cells. […]

BGC-823 (human stomach) = assay: In vitro tumour cell growth inhibition (MTT), BGC-823; assay type: cell-based; details: Table 1 experiment, 96 h
Procedure: as §1, §2, §3, §4

[2] = Solubility in 10% v/v propylene glycol; assay type: physicochemical; details: 10% v/v propylene glycol aqueous solution, aqueous with cosolvent or surfactant or cyclodextrin, thermodynamic from solid, ambient conditions, stirred 5 hours, read-out: Solubility, Concentration
Procedure: The potential of temozolomide esters used as topical and transdermal prodrugs is first proven through studies of their solubility. That is a decreased trend of solubility in an aqueous solution with increase of the length of the ester hydrocarbon alkyl chain of the temozolomide esters. It is clear the solubility constantly decreases from the methyl ester to the octyl ester, while temozolomide itself is 3.0 mg/ml similar to that of the methyl ester. […] Similarly to the esters, the solubility of the temozolomide amide products in the aqueous solution is considerably lower than that of temozolomide.
The solubility of temozolomide and the temozolomide esters was determined in 10% v/v propylene glycol by stirring an excess of the solid products at room temperature for 5 hours. The mixtures were then filtered, diluted with sample solvent and analysed using HPLC.

TJ905 (human glioma) = assay: In vitro tumour cell growth inhibition (MTT), TJ905; assay type: cell-based; details: Homo sapiens, Table 2 experiment, 96 h
Procedure: as §1, §2, §3
(§5) The IC50 was calculated from the curve of the tested compound concentrations against the inhibition rate of the tumour cells. Table 1 summarized the experiment results by using six human cancer cell lines, HCT-8 (colon carcinoma), A549 (non small lung carcinoma), MCF-7 (breast), Bel7402 (hepatocellulor carcinoma), BGC-823 (stomach adenocarcinoma), and MV3 (melanoma). Table 2 summarized the results from the experiment results by using two human melanoma cell lines, MV3 and M14, two mouse melanoma cell lines, B16 and B16-BL6, and three human glioma cell lines, TJ899, SHG-44 and TJ905.

B16-BL6 (mouse melanoma) = assay: In vitro tumour cell growth inhibition (MTT), B16-BL6; assay type: cell-based; details: Mus musculus, B16-BL6, Table 2 experiment, 96 h
Procedure: as §1, §2, §3, §5

IC50 [1]: 27.2 µg/mL (≈ 97.4 µM)
IC50 (BGC-823 (human stomach)): > 19.5 µg/mL
solubility at 5 h [2]: 400 µg/mL (≈ 1430 µM)
IC50 (TJ905 (human glioma)): > 100 µg/mL
IC50 (B16-BL6 (mouse melanoma)): > 100 µg/mL
Structure (SMILES): CCCCCCOC(=O)c1ncn2c(=O)n(C)nnc12 [temozolomide hexyl ester, Hexyl 3,4-dihydro-3-methyl-4-oxoimidazo[5,1-d]-1,2,3,5-tetrazine-8-carboxylate]

— patent US7173021B2, “Synthesis of temozolomide esters as potent anticancer pro-drugs for topical and transdermal applications in treatments of cancers” (Tianjin North Pharm Sci-Tech Co., Ltd., priority 2004, dated 2007)
